Reference: patent US20260021090A1, “METHODS OF ADM[…]” (Trevi Therapeutics, Inc., priority 2022, published 2026)
Like-named read-outs stand apart in the source and are kept apart here.

Experiments:
clinical = details: human, plasma, po, absolute bioavailability, oral administration
[1] = IV, cited from earlier work
[2] = injectable formulations (IV or IM or SC); cited from earlier work
[3] = race (Caucasian vs African American) or BMI

In the case of Cl.Oc1ccc2c3c1OC1[C@@H](O)CC[C@@]4(O)[C@@H](C2)N(CC2CCC2)CC[C@]314 (stereo partly drawn) [nalbuphine, 17-(cyclobutylmethyl)-4,5α-epoxymorphinian-3, 6α, 14-triol, hydrochloride], the bioavailability (clinical; non-elderly subjects) is listed as 11%, the bioavailability (clinical; subjects aged older than 65 years) is listed as ~44% and the volume of distribution ([1]; across the age groups) is listed as “comparable across the age groups”. For the same compound, the “elimination half-life (T½)” value ([1]; children between 1.5 and 8.5 yrs) was 0.9 h, the “elimination half-life (T½)” value ([1]; elderly subjects 65-90 yrs) was 2.3 h and the “elimination half-life (T½)” value ([1]; young adults 23-32 yr of age) was 1.96 h. For the same compound, the half-life [2] was 2 to 3 h and the “effect on CL/F due to race or BMI” value [3] was “no observable effect”.
